Where “and” joins values, the source holds several entries; their conditions need not be identical. Equal values may be shown once. Entries after “also recorded” stand apart in the source; their conditions may differ.
Experiments:
[1] = test system: VC I-II RNA (tandem type I and type II glycine aptamers, VC1422 gene); assay: In-line probing of VC I-II RNA; format: binding, Vibrio cholerae; settings: for structural modulation (change in pattern of spontaneous cleavage) of VC I-II: ligand at 1 mM
Protocol: In-line probing of the VC I-II construct (FIG. 1B), derived from the VC1422 gene from V. cholerae, was carried out with trace amounts of 5′ ^32P-labeled RNA using methods that are similar to those described elsewhere in Nahvi et al., Chem. Biol. 9, 1043 (2002), and Winkler et al., Nature 419, 952 (2002). RNAs were prepared by transcription from the appropriate DNA template carrying a T7 RNA polymerase promoter, which was generated by PCR from V. cholerae (C6706-st2) genomic DNA using the primers 5′-[sequence]-[sequence] […] The underlined nucleotides identify sequences corresponding to the promoter for T7 RNA polymerase.
In a typical in line probing assay, ˜15 nM of labeled RNA is incubated in buffer (20 mM MgCl2, 50 mM Tris, pH 8.3 at 25° C., 100 mM KCl) in the absence or presence of ligand for 40 hrs at 23° C. After incubation, spontaneously cleaved products were separated using 10% denaturing PAGE and were visualized and quantitated using a PhosphorImager (Molecular Dynamics).
Lowercase letters in FIG. 1B and FIG. 8A identify nucleotides that were added to the construct to permit efficient transcription in vitro using RiboMAX transcription (Promega). For the data presented in FIG. 5, fraction bound equals 1 minus the normalized fraction cleaved in the in-line probing assay at U207-C208 for VC II and U74 for VC I-II.
Curves for the absence of cooperativity (blue curve, n=1) and presence of perfect cooperativity at two binding sites (orange curve, n=2) are depicted. […] The fraction of RNA cleaved at four regions in both RNA constructs was determined by in-line probing. The amount of cleavage was normalized to range from 0 to 1 using the minimum and maximum amounts cleaved for each region.

VC II RNA = assay: Equilibrium dialysis with 3H-glycine, VC II RNA; format: binding, Vibrio cholerae; settings: for restoration of equal distribution of 3H-glycine by unlabeled competitor: VC II 100 μM, excess (1 mM) unlabeled competitor after preequilibration
Protocol: (§1) Methods used for equilibrium dialysis were similar to those described in Mandal et al., Cell 113, 577 (2003). Specifically, equilibrium dialysis assays were conducted using a DispoEquilibrium Dialyzer (Harvard Biosciences), wherein chamber a and b are separated by a 5,000 MWCO membrane. […] Chamber b contained VC II or VC I-II RNA transcripts at 100 μM concentration suspended in the same buffer. Equilibrations were allowed to proceed for 10 hrs at 23° C. Subsequently 5 μL of sample was drawn from each chamber and quantitated by liquid scintillation counting. […] For both RNAs, experiments i-iii (FIG. 4B) were conducted by first pre-equilibrating the chambers (left data point), and then adding unlabeled competitor as indicated followed by a second equilibration (right data point). RNAs were prepared by in vitro transcription using the appropriate PCR DNA templates as described above.
(§2) Other notations are the same as those described for FIG. 1C.

VC I-II RNA = assay: Equilibrium dialysis with 3H-glycine, VC I-II RNA; format: binding, Vibrio cholerae; settings: for restoration of equal distribution of 3H-glycine by unlabeled competitor: VC I-II 100 μM, excess (1 mM) unlabeled competitor after preequilibration
Protocol: as §1, §2

[2] = test system: gcvT 5'-UTR glycine riboswitch; assay: Single-round in vitro transcription termination assay; format: biochemical, Bacillus subtilis; settings: for effect on production of full-length RNA transcripts: single-round in vitro transcription
Protocol: Transcription termination assays were conducted as described previously (Sudarsan et al., Genes Dev. 17, 2688 (2003); Landick et al., Methods Enzymol. 274, 334 (1996)).
Transcription assays were performed using a method adapted from that described earlier (Edelstein, Annu. Rev. Biochem. 44, 209 (1975)). […] DNA templates encompassing nucleotides −406 to +7 relative to the translation start site for the gcvT operon in B. subtilis were used. Transcription assays included 20 mM Tris-HCl (pH 8.0 at 23° C.), 20 mM NaCl, 14 mM MgCl2, 0.1 mM EDTA, 0.01 mg/mL BSA, and 1% v/v glycerol. Each reaction (10 μL) contained 1 pmole of template DNA and 9 U E. coli RNA polymerase (Epicenter) and was conducted with the type and concentration of target molecule as indicated for each experiment. Transcription was initiated by the addition of the dinucleotide ApA (135 μM), GTP and UTP (2.5 μM each), ATP (1 μM), and [α-^32P]-ATP (4_Ci). After 5 min incubation at 37° C., 50 μM of each NTP was added along with 0.1 mg/mL heparin to prevent re-initiation by RNA polymerase. Transcription products generated after a 10 minute incubation were separated by denaturing 6% PAGE and visualized by using a PhosphorImager. […] Single-round transcription assays were conducted as described for FIG. 9A. […] Single-round transcription assays were conducted as described for FIG. 9A with 50 μM rNTPs.

[3] = test system: wild-type gcvT IGR fused to β-galactosidase reporter gene; settings: amino acid present in growth medium
Excerpt: Specifically, nucleotides −429 to +7 relative to the B. subtilis gcvT translation start site of the first open reading frame of the gcvT operon was PCR amplified as an EcoRI-BamHI fragment from B. subtilis strain 1A2 (Bacillus Genetic Stock Center, Columbus, Ohio). The wild type construct was cloned into pDG1661 at a site directly upstream of the lacZ reporter gene. […] The IGR used for this study (FIG. 8A) differed in sequence at three nucleotides (151-153, TTT to AAA) relative to the genomic database. Plasmids generated were integrated into the amyE locus of strain 1A2. Transformants were selected for chloramphenicol (5 μg/ml) resistance and screened for sensitivity to spectinomycin (100 μg/ml). Cells were grown in defined media (0.5% w/v glucose, 2 g/L (NH4)2SO4, 25 g/L K2HPO4-3H2O, 6 g/L KH2PO4, 1 g/L sodium citrate, 0.2 g/L MgSO4-7H2O, 2 μM MnCl2, 15 mM glutamate, and 5 mg/L chloramphenicol) to an A595 of 0.1, pelleted, and resuspended in minimal media supplemented with 500 μg/L of amino acid as indicated for each experiment. Cultures were incubated for an additional 3 hr and β-galactosidase assays were performed as described previously (Miller, A Short Course in Bacterial Genetics (Cold Spring Harbor Laboratory Press, Cold Spring Harbor, N.Y., 1992)). Miller units plotted are the average of six values (three assays conducted in duplicate).

[4] = test system: VC II RNA (type II glycine aptamer alone); assay: In-line probing of VC II RNA; format: binding, Vibrio cholerae; settings: for EC50: in-line probing, read-out: concentration of ligand needed to cause half-maximal structure modulation of VC II
[5] = test system: variant VC I-II construct wherein aptamer II has been mutated; settings: relative to wild-type VC I-II

Row | Compound | structural modulation (change in pattern of spontaneous cleavage) of VC I-II [1] | restoration of equal distribution of 3H-glycine by unlabeled competitor (VC II RNA) | restoration of equal distribution of 3H-glycine by unlabeled competitor (VC I-II RNA) | effect on production of full-length RNA transcripts [2] | EC50 [4] [µM] | other results
1 | C[C@H](N)C(=O)O [L-alanine] | did not induce change | failed to restore equal distribution | failed to restore equal distribution | failed to trigger an increase |  | expression of β-galactosidase reporter [3]: low amount of gene expression
2 | N[C@@H](CO)C(=O)O [L-serine] |  | failed to restore equal distribution | failed to restore equal distribution | rejected; also recorded: failed to trigger an increase |  | 
3 | NCC(=O)NO [glycine hydroxamate] |  |  |  |  | ~1000 | 
4 | COC(=O)CN [glycine methyl ester] | measurable structural modulation |  |  |  | ~100 | 
5 | CC(C)(C)OC(=O)CN [glycine tertiary butyl ester, glycine tert-butyl ester] | measurable structural modulation |  |  |  | ~1000 | 
6 | NCC(=O)O [glycine] | caused changes in the pattern of spontaneous cleavage | restored an equal distribution | restored an equal distribution | substantial increase in the amount of full-length RNA transcript | ~10 | increase in glycine concentration for change from 10% to 90% ligand-bound RNA ([1]; VC I-II): 10 fold; Hill coefficient n ([1]; VC I-II, best fit of four regions, maximum for two sites is 2): 1.64 and 1.64±0.07; Kd ([1]; VC I-II, best fit of four regions, read-out: constant K of Hill equation): 40 ± 1 µM; Hill constant n ([4]; VC II, best fit of four regions): 0.97±0.04; Kd ([4]; VC II, best fit of four regions, read-out: constant K of Hill equation): 24 ± 12 µM; increase in glycine concentration for change from 10% to 90% ligand-bound RNA ([4]; single aptamer RNA, printed as VC I RNA): 100 fold; equivalents of glycine bound by RNA (VC II RNA; three equivalents of glycine versus one equivalent of VC II RNA (100 μM), 1 expected): 0.8 equivalents; loss of affinity in the unaltered aptamer I [5]: more than 1,000 fold; increase in the amount of glycine bound by RNA (VC I-II RNA; one equivalent of VC I-II RNA (two aptamer equivalents) versus VC II, 2 expected): 1.6 fold; glycine concentration at which full-length transcripts are favored ([2]; added to transcription mixture): > 10 µM; Hill coefficient of best-fit curve to transcription data ([2]; yield of full-length transcripts versus glycine): 1.4

— US20090117545A1 (priority 2004, published 2009)
